Measured values from patent US7867492B2, “Compounds for hedgehog pathway blockade in proliferative disorders, including hematopoietic malignancies” (The John Hopkins University, priority 2007, dated 2011).

Legend:
Hh pathway [1] = assay: ATO combined with cyclopamine, 8×Gli-luciferase reporter in 3T3 cells; assay type: cell-based; conditions: cyclopamine at fixed concentrations of […] and 0.125 μM, presence of ShhN
Gli = assay: Hh reporter in 3T3 cells cotransfected with SmoA1, Gli2 or Gli1; assay type: cell-based; conditions: presence or absence of ShhN
Hh pathway [2] = assay type: cell-based
Wnt pathway = assay: Wnt reporter (7×TCF/LEF-luciferase) in 3T3 cells; assay type: cell-based; conditions: increasing concentrations, presence or absence of Wnt3a-conditioned medium
Text: 3T3 cells were transfected with a Wnt reporter (7×TCF/LEF-luciferase) and treated with increasing concentrations of ATO in the presence or absence of Wnt3a-conditioned medium.
To further assess the specificity of the arsenic effect on Hedgehog pathway signaling, 3T3 cells were transfected with a Wnt reporter (7×TCF/LEF-luciferase) and treated with increasing concentrations of ATO in the presence or absence of Wnt3a-conditioned medium.

[3] = tested on: medulloblastoma from Ptch+/−p53−/− mice; assay: Hh activity-induced medulloblastoma allografts in athymic nude mice; assay type: in vivo; conditions: daily intraperitoneal injection
Protocol: FIG. 7 is a pictorial and a graphical diagram showing that ATO inhibits growth of Hh activity-induced medulloblastoma allografts in nude mice. Primary medulloblastoma from Ptch+/−p53−/− mice were dissected and injected into athymic nude mice. The mice were injected daily with either control PBS or 3 different doses of ATO intraperitoneally.
The activity of ATO was then tested in vivo in a well-established model of a tumor that is dependent on Hh pathway activity for growth. In this model, primary medulloblastoma cells from Ptch+/−p53−/− mice were dissected and injected into athymic nude mice. The mice were then injected daily with either control PBS or 3 different doses of ATO intra-peritoneally.

K-ras pathway = assay type: cell-based

| Compound | Effect of ATO on Hh pathway when combined with cyclopamine (Hh pathway [1]) | Hh reporter activity induced by SmoA1, Gli2 or Gli1 over-expression (Gli) | Hh pathway activity (8×Gli-luciferase reporter) (Hh pathway [2]; NIH3T3 cells, increasing concentrations, presence or absence of ShhN-conditioned medium) | Wnt pathway activity (7×TCF/LEF-luciferase reporter) (Wnt pathway) | Tumor allograft growth ([3]; 3 different doses, athymic nude mice) | Tumor allograft growth at the highest concentration tested ([3]; highest concentration tested) | K-ras pathway activity (SRE-luciferase reporter) (K-ras pathway) | Hh signaling (reporter) (Hh pathway [2]) |
| --- | --- | --- | --- | --- | --- | --- | --- | --- |
| arsenic trioxide [ATO] | significantly improved effect of ATO at lower concentrations | dramatically inhibited reporter activity | inhibits Hh pathway in a dose-dependent manner | does not inhibit the Wnt pathway | suppressed tumor allograft growth in a concentration dependent manner | complete growth suppression | – | – |
| O=[As][O-].[Na+] [NaAsO2] | – | – | – | – | – | – | did not inhibit, and in fact stimulated the K-ras pathway | inhibits Hh signaling |
